Laboratory results reported in patent US4999042A, “Phenyl oximino-acetate fungicides” (Imperial Chemical Industries PLC, priority 1986, dated 1991).

Key:
Assay type in all cases: in vivo
[1] = test system: Puccinia recondita (wheat); experiment: Foliar fungal disease control, Puccinia recondita on wheat; details: 100 ppm foliar spray plus root drench approx. 40 ppm a.i./dry soil, 1-2 days before inoculation
[2] = test system: Erysiphe graminis hordei (barley); experiment: Foliar fungal disease control, Erysiphe graminis hordei on barley; details: 100 ppm foliar spray plus root drench approx. 40 ppm a.i./dry soil, inoculated 24 hours before treatment
[3] = test system: Venturia inaequalis (apple); experiment: Foliar fungal disease control, Venturia inaequalis on apple; details: 100 ppm foliar spray plus root drench approx. 40 ppm a.i./dry soil, 1-2 days before inoculation
[4] = test system: Pyricularia oryzae (rice); details: 100 ppm foliar spray plus root drench approx. 40 ppm a.i./dry soil, 1-2 days before inoculation
[5] = test system: Cercospora arachidicola (peanut); experiment: Foliar fungal disease control, Cercospora arachidicola on peanut; details: 100 ppm foliar spray plus root drench approx. 40 ppm a.i./dry soil, 1-2 days before inoculation
[6] = test system: Plasmopara viticola (vine); experiment: Foliar fungal disease control, Plasmopara viticola on vine; details: 100 ppm foliar spray plus root drench approx. 40 ppm a.i./dry soil, 1-2 days before inoculation
Maize (MZ) = experiment: Plant growth regulating whole plant screen, maize; details: 4000 ppm (4 kg/ha) spray; for A = Apical damage / I = Interligular or internodal length reduction / R = Retardation: visual score after 2-6 weeks
Experimental: (§1) This Example illustrates the plant growth regulating properties of compounds 1, 2, 5 and 12-15 of Table I when tested on a whole plant screen against two species of plant. The plant species are identified in Table IV with the leaf stage at which they were sprayed.
(§2) A formulation of each chemical was applied at 4000 ppm (4 kg/ha in a 1000 1/ha field volume) using a tracksprayer and a SS8004E (Teejet) nozzle.
(§3) After spraying, the plants were grown in a glasshouse with 25° C. day/22° C. night temperatures. Supplementary lighting was supplied when necessary to provide an average photoperiod of 16 hours (14 hours minimum).
(§4) After 2-6 weeks in the glasshouse, depending on species and time of year, the plants were visually assessed for morphological characteristics against a control plant sprayed with a blank formulation.

Apple (AP) = experiment: Plant growth regulating whole plant screen, apple; details: 4000 ppm (4 kg/ha) spray, visual score after 2-6 weeks
Experimental: as §1, §2, §3, §4

SMILES	disease control grading, PUCCINIA RECONDITA (WHEAT) [1]	disease control grading, ERYSIPHE GRAMINIS HORDEI (BARLEY) [2]	disease control grading, VENTURIA INAEQUALIS (APPLE) [3]	disease control grading, P[…] (RICE) [4]	disease control grading, CERCOSPORA ARACHIDICOLA (PEANUT) [5]	disease control grading, PLASMOPARA VITICOLA (VINE) [6]	A = Apical damage (Maize (MZ))	I = Interligular or internodal length reduction (Maize (MZ))	R = Retardation (Maize (MZ))	G = Greening effect (Apple (AP))	I = Interligular or internodal length reduction (Apple (AP))	R = Retardation (Apple (AP))	P = Phytotoxicity (Maize (MZ); after 2-6 weeks)
CON=C(C(=O)OC)c1ccccc1/C=C/c1ccccc1 (single isomer, unassigned) [Compound 2, methyl O-methyl (2-(E)-styrylphenyl)oximino-acetate]	2 (6-25% of disease on untreated plants)	0 (60-100% of disease on untreated plants)	4	0 (60-100% of disease on untreated plants)	0 (60-100% of disease on untreated plants)	4	2 (31-60%)	2 (31-60%)	2 (31-60%)	1 (10-30%)	1 (10-30%)	2 (31-60%)	
CO/N=C(\C(=O)OC)c1ccccc1Oc1ccccc1 [Compound 5, methyl O-methyl(2-phenoxyphenyl)oximino-acetate]	0 (60-100% of disease on untreated plants)	3 (trace - 5% of disease on untreated plants)	3 (trace - 5% of disease on untreated plants)	1 (26-59% of disease on untreated plants)	0 (60-100% of disease on untreated plants)	0 (60-100% of disease on untreated plants)	3 (61-100%)	3 (61-100%)	3 (61-100%)				1 (less than 10%)
